In ChEMBL document CHEMBL5108059, “Discovery of 2-Methyl-2-(4-(2-methyl-8-(1H-pyrrolo[2,3-b]pyridin-6-yl)-1H-naphtho[1,2-d]imidazol-1-yl)phenyl)propanenitrile as a Novel PI3K/mTOR Inhibitor with Enhanced Antitumor Efficacy In Vitro and In Vivo” (J Med Chem, 2022):

Tests used:
[1] = target: Serine/threonine-protein kinase mTOR (Homo sapiens, UniProt P42345); experiment: Inhibition of N-terminal FLAG-tagged recombinant human mTOR (1362 to end residue) using ULight-4EBP1 peptide as substrate incubated for 30 mins in presence of ATP by Lance ultra assay
[2] = target: Phosphatidylinositol 4,5-bisphosphate 3-kinase catalytic subunit alpha isoform (Homo sapiens, UniProt P42336); experiment: Inhibition of PI3Kalpha (unknown origin) using PIP2 as substrate incubated for 1 hr in presence of ATP by Kinase Glo luminescence assay
Sequence of Phosphatidylinositol 4,5-bisphosphate 3-kinase catalytic subunit alpha isoform (P42336 whole entry, canonical isoform): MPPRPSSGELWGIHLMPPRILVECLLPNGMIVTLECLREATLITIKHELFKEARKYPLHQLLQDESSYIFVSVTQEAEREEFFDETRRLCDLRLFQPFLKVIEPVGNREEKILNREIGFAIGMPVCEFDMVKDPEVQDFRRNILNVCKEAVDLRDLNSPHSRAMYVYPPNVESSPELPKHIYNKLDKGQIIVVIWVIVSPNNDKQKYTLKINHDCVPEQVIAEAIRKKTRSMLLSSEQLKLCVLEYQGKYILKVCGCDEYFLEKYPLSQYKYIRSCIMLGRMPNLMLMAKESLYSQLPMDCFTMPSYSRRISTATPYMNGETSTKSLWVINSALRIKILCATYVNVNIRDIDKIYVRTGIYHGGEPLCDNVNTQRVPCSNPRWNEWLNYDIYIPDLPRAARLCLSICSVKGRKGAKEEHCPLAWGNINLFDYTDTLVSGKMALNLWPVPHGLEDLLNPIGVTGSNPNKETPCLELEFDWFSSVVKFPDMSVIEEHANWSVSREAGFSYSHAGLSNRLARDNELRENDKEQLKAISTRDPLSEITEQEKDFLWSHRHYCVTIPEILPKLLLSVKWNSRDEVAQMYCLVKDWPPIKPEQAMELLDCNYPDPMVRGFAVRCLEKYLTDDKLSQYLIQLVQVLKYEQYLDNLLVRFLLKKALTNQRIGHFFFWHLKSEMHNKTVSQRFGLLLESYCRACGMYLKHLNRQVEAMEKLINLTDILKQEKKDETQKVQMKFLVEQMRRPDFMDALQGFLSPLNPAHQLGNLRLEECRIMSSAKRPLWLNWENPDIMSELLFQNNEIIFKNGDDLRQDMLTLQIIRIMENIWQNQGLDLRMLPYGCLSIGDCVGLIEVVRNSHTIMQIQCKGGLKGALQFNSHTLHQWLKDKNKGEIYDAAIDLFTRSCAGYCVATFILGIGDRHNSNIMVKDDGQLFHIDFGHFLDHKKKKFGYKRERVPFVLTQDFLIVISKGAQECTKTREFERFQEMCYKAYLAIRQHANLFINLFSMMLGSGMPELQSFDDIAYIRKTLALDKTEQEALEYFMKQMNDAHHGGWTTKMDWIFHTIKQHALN

[3] = target: T1, Phosphatidylinositol 4,5-bisphosphate 3-kinase catalytic subunit delta isoform (Homo sapiens, UniProt O00329); experiment: Inhibition of PI3Kdelta (unknown origin) using PIP2 as substrate incubated for 2 hrs in presence of ATP by Kinase Glo luminescence assay
T1 sequence (O00329 whole entry): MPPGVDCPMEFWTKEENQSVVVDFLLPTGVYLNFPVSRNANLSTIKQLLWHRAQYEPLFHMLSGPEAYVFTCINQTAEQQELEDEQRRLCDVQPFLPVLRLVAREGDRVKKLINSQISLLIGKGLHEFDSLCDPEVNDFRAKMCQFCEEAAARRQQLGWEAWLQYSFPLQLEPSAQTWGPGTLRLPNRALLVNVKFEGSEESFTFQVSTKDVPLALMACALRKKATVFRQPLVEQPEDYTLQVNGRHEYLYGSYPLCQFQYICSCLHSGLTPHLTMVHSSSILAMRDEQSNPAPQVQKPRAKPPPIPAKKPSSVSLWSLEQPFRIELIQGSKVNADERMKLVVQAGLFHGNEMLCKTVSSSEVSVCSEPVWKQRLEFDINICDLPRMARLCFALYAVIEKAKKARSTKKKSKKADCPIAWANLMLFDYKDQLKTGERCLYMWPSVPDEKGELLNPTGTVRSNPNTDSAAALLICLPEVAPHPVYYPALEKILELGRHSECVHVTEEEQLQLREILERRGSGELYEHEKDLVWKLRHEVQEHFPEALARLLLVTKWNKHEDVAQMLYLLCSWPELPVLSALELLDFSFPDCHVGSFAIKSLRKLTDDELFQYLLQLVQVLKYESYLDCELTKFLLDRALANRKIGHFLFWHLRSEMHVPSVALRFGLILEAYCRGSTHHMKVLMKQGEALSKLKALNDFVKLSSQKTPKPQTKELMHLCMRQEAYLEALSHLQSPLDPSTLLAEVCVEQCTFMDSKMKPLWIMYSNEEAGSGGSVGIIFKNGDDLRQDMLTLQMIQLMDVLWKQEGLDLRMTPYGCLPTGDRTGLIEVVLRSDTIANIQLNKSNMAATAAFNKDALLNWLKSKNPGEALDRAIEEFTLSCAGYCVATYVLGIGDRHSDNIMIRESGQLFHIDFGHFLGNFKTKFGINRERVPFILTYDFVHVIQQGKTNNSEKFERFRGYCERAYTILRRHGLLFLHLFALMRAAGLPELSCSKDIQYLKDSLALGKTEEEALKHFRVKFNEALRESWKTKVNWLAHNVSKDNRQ

[4] = test system: HT-29; experiment: Antiproliferative activity against human HT-29 cells with PIK3CA mutation assessed as inhibition of cell growth incubated for 48 to 72 hrs by MTT assay; format: functional, cell-based
[5] = test system: HCT-15; experiment: Antiproliferative activity against human HCT-15 cells with PIK3CA mutation assessed as inhibition of cell growth incubated for 48 to 72 hrs by MTT assay; format: functional, cell-based
[6] = test system: NCI-H3122; experiment: Antiproliferative activity against human NCI-H3122 cells assessed as inhibition of cell growth incubated for 48 to 72 hrs by MTT assay; format: functional, cell-based
[7] = test system: HeLa; experiment: Antiproliferative activity against human HeLa cells assessed as inhibition of cell growth incubated for 48 to 72 hrs by MTT assay; format: functional, cell-based
[8] = test system: SW-620; experiment: Antiproliferative activity against human SW620 cells assessed as inhibition of cell growth incubated for 48 to 72 hrs by MTT assay; format: functional, cell-based
[9] = test system: NCI-H446; experiment: Antiproliferative activity against PTEN-null human NCI-H446 cells assessed as inhibition of cell growth incubated for 48 to 72 hrs by MTT assay; format: functional, cell-based

Row | IC50 [1] [nM] | IC50 [2] [nM] | IC50 [3] [nM] | IC50 [4] [nM] | IC50 [5] [nM] | IC50 [6] [nM] | IC50 [7] [nM] | IC50 [8] [nM] | IC50 [9] [nM] | Structure (SMILES)
1 | > 1000 | > 1000 | 852 | – | – | – | – | – | – | Cc1noc(C)c1-c1ccc2ncc3nc(C)n(-c4ccc(F)cc4)c3c2c1
2 | > 1000 | 321 | > 1000 | – | – | – | – | – | – | COc1ccc(-c2ccc3ncc4nc(C)n(-c5ccc(F)cc5)c4c3c2)cc1
3 | 123 | 62.5 | 96.4 | 1320 | 1410 | 7730 | 5680 | 3940 | 9710 | Cc1nc2cnc3ccc(-c4cnc5[nH]ccc5c4)cc3c2n1-c1ccc(C#N)cc1
4 | 121 | 68.1 | 90.3 | 1980 | 2320 | 8750 | 3130 | 2150 | 6970 | Cc1nc2cnc3ccc(-c4ccc(N)cc4)cc3c2n1-c1ccc(F)cc1
5 | 679 | 472 | > 1000 | – | – | – | – | – | – | Cc1nc2cnc3ccc(-c4cnc5[nH]ccc5c4)cc3c2n1C
6 | > 1000 | 672 | > 1000 | – | – | – | – | – | – | Cc1nc2cnc3ccc(-c4cnn(C)c4)cc3c2n1-c1ccc(F)cc1
7 | 596 | 463 | > 1000 | – | – | – | – | – | – | Cc1nc2cnc3ccc(-c4cnc(N5CCOCC5)nc4)cc3c2n1-c1ccc(F)cc1
8 | 102 | 79.6 | 164 | 1870 | 1430 | 1960 | 2350 | 1650 | 2780 | Cc1nc2cnc3ccc(-c4cnc5[nH]ccc5c4)cc3c2n1[C@H](C)c1ccccc1
9 | 190 | 148 | 202 | 3140 | 9750 | 8950 | 16800 | 13700 | 12200 | Cc1nc2cnc3ccc(-c4ccc5ccccc5c4)cc3c2n1-c1ccc(F)cc1
10 | 415 | 307 | 218 | – | – | – | – | – | – | Cc1nc2cnc3ccc(-c4cnc5[nH]ccc5c4)cc3c2n1CC1CCOCC1
11 | 38.7 | 21.5 | 28.9 | 1250 | 1130 | 2050 | 1820 | 1280 | 1650 | Cc1nc2cnc3ccc(-c4cnc5[nH]ccc5c4)cc3c2n1-c1ccc(F)cc1
12 | 263 | 117 | 106 | 2980 | 3060 | 6710 | 2720 | 4160 | 7590 | Cc1nc2cnc3ccc(-c4cnc5[nH]ccc5c4)cc3c2n1Cc1ccccc1
13 | 73.9 | 41 | 32.3 | 2310 | 1940 | 5610 | 3640 | 2910 | 4510 | Cc1nc2cnc3ccc(-c4cnc5[nH]ccc5c4)cc3c2n1-c1ccccc1
14 | 392 | 365 | 450 | – | – | – | – | – | – | Cc1nc2cnc3ccc(-c4cnc5[nH]ccc5c4)cc3c2n1CC1CCOC1 (centres undefined)
15 | 84.9 | 139 | 105 | 1150 | 1790 | 5360 | 2760 | 3210 | 4820 | Cc1nc2cnc3ccc(-c4cnc5[nH]ccc5c4)cc3c2n1-c1ccc(CC#N)cc1
16 | 32.3 | 33.1 | 40.5 | 3250 | 3090 | 5080 | 4310 | 2790 | 7130 | Cc1nc2cnc3ccc(-c4cnc5ccccc5c4)cc3c2n1-c1ccc(F)cc1
17 | 49.3 | 29.8 | 57.3 | 2720 | 1920 | 2310 | 1790 | 2530 | 3080 | Cc1nc2cnc3ccc(-c4ccc5[nH]ccc5c4)cc3c2n1-c1ccc(F)cc1

Row | IC50 [1] [nM] | IC50 [2] [nM] | IC50 [3] [nM] | IC50 [4] [nM] | IC50 [5] [nM] | IC50 [6] [nM] | IC50 [7] [nM] | IC50 [8] [nM] | IC50 [9] [nM] | Structure (SMILES)
18 | > 1000 | 569 | > 1000 | – | – | – | – | – | – | Cc1nc2cnc3ccc(-c4ccc(Cl)cc4)cc3c2n1-c1ccc(F)cc1
19 | 62.1 | 36.7 | 30.4 | 1320 | 1970 | 5390 | 2710 | 1930 | 4160 | Cc1nc2cnc3ccc(-c4cnc(N)nc4)cc3c2n1-c1ccc(F)cc1
20 | 67.2 | 26.3 | 17.2 | 820 | 750 | 1330 | 960 | 1870 | 1510 | COc1ccc(-n2c(C)nc3cnc4ccc(-c5cnc6[nH]ccc6c5)cc4c32)cc1
21 | 114 | 69.3 | 156 | 1020 | 1360 | 1080 | 940 | 930 | 1470 | Cc1nc2cnc3ccc(-c4cnc5[nH]ccc5c4)cc3c2n1-c1ccc(N2CCOCC2)cc1
22 | 206 | 251 | 336 | 18700 | > 20000 | > 20000 | 19800 | > 20000 | > 20000 | COC(=O)c1ccc(-c2ccc3ncc4nc(C)n(-c5ccc(F)cc5)c4c3c2)cc1
23 | 87.4 | 140 | 203 | 1710 | 1040 | 1970 | 3510 | 1610 | 3020 | Cc1nc2cnc3ccc(-c4cnc5[nH]ccc5c4)cc3c2n1[C@@H](C)c1ccc(F)cc1
24 | 76.4 | 41.4 | 55.2 | 1160 | 1290 | 1310 | 1920 | 970 | 2100 | Cc1nc2cnc3ccc(-c4cnc5[nH]ccc5c4)cc3c2n1-c1ccc(F)nc1
25 | 487 | 304 | > 1000 | – | – | – | – | – | – | CC(=O)c1ccc(-c2ccc3ncc4nc(C)n(-c5ccc(F)cc5)c4c3c2)cc1
26 | > 1000 | 352 | 513 | – | – | – | – | – | – | Cc1nc2cnc3ccc(-c4ccc(C#N)cc4)cc3c2n1-c1ccc(F)cc1
27 | 93.8 | 51.3 | 40.7 | 1210 | 2020 | 4750 | 1710 | 2130 | 3610 | Cc1nc2cnc3ccc(-c4ccc(N)nc4)cc3c2n1-c1ccc(F)cc1
28 | 781 | 487 | > 1000 | – | – | – | – | – | – | Cc1nc2cnc3ccc(-c4ccc(F)cc4)cc3c2n1-c1ccc(F)cc1
29 | > 1000 | 501 | 814 | – | – | – | – | – | – | Cc1nc2cnc3ccc(-c4cnc5[nH]ccc5c4)cc3c2n1C1CC1
30 | > 1000 | 357 | 579 | – | – | – | – | – | – | Cc1ccc(-c2ccc3ncc4nc(C)n(-c5ccc(F)cc5)c4c3c2)cc1
31 | > 1000 | 507 | > 1000 | – | – | – | – | – | – | Cc1nc2cnc3ccc(-c4ccc(C(F)(F)F)cc4)cc3c2n1-c1ccc(F)cc1
32 | > 1000 | > 1000 | > 1000 | – | – | – | – | – | – | Cc1nc2cnc3ccc(-c4cc(C(F)(F)F)cc(C(F)(F)F)c4)cc3c2n1-c1ccc(F)cc1
33 | – | – | – | 1310 | 1760 | 2510 | 3720 | 1070 | 2160 | Oc1cccc(-c2nc(N3CCOCC3)c3oc4ncccc4c3n2)c1 [PI-103]
